Reference: patent US20230365592A1 (Agios Pharmaceuticals, Inc., priority 2022, published 2023)

Target: T1, human PAH with the R408W mutation (Homo sapiens, UniProt P00439, R408W)
T1 construct: expressed in transfected cells
T1 sequence (P00439 1-452 R408W): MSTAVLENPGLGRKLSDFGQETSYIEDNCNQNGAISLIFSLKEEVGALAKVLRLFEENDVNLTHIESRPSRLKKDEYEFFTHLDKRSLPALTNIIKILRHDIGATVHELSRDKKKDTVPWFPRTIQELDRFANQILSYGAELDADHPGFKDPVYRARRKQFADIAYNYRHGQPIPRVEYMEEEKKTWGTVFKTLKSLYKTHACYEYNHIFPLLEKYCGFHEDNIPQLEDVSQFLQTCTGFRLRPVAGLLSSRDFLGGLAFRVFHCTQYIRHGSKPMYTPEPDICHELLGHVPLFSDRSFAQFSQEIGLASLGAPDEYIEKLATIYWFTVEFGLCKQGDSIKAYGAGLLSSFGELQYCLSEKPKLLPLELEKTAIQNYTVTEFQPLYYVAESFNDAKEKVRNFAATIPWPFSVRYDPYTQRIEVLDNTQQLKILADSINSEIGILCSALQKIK
Experiment: Cell Based Phenylalanine Flux Assay;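 also: after compound treatment, cells received sepiapterin plus isotope-labelled Phenylalanine for 4 hours, then labelled Tyrosine in the medium was quantified, 10-point 2-fold dilution series run in duplicate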
Conditions: A375 cells expressing R408W PAH; 24 hrs with compound, then 20 µM sepiapterin and 800 µM 13C9,15N-Phenylalanine for 4 hours; 13C-Tyrosine by LC-MS; average where tested multiple times; read-out: AC50

Q: With `O=C(C1CCC1)N1CCc2[nH]cnc2C1c1cc2ccccn2n1` (stereo not shown) as the molecule, how does the AC50 read?
A: Its AC50 is over 5000 nM.

Q: With `O=C(c1nnc(C2CC2)o1)N1CCc2[nH]cnc2C1c1cc2cc(C(F)(F)F)ccn2n1` (stereo not shown) as the molecule, how does the AC50 read?
A: Its AC50 is 1000 to 5000 nM.

Q: With `Cc1nnc(N2CCc3[nH]cnc3[C@H]2c2cc3cccc(Cl)n3n2)o1` (single isomer, unassigned) as the molecule, how does the AC50 read?
A: Its AC50 is 1000 to 5000 nM.

Q: `Cn1cc(-c2ncc(C(=O)N3CCc4[nH]cnc4C3c3cc4c(C(F)F)cccn4n3)o2)cn1` (stereo not shown) was tested. Which AC50 did it give?
A: Its AC50 is 1000 to 5000 nM.

Q: `c1ccn2nc(C3c4nc[nH]c4CCN3c3nnc(-c4ccncn4)o3)cc2c1` (stereo not shown) was tested. Which AC50 did it give?
A: Its AC50 is 1000 to 5000 nM.

Q: Which AC50 does the source give for `CC(C)(F)c1nnc(C(=O)N2CCc3[nH]cnc3C2c2cc3cc(F)ccn3n2)o1` (single isomer, unassigned) here?
A: The AC50 was 1000 to 5000 nM.

Q: `CC(C)(F)c1nnc(N2CCc3[nH]cnc3C2c2cc3c(C(F)F)cccn3n2)o1` (stereo not shown) was tested. Which AC50 did it give?
A: Its AC50 is over 5000 nM.

Q: `FC(F)c1nnc(N2CCc3[nH]cnc3C2c2cc3cccc(C(F)(F)F)n3n2)o1` (stereo not shown) was tested. Which AC50 did it give?
A: The AC50 was 1000 to 5000 nM.

Q: How did the AC50 turn out when `Fc1cccn2nc(C3c4nc[nH]c4CCN3c3nnc(C4CC(F)(F)C4)o3)cc12` (stereo not shown) was run?
A: Its AC50 is 1000 to 5000 nM.

Q: `Cc1nc(C(C)O)oc1C(=O)N1CCc2[nH]cnc2C1c1cc2cccc(Cl)n2n1` (stereo not shown) was tested. Which AC50 did it give?
A: The AC50 was over 5000 nM.

Q: `Cc1cccc2cc(C3c4nc[nH]c4CCN3C(=O)c3nc(C(F)F)nn3C)nn12` (stereo not shown) was tested. Which AC50 did it give?
A: The AC50 was 1000 to 5000 nM.

Q: For `Fc1cccc2cc(C3c4nc[nH]c4CCN3c3nnc(C(F)F)o3)nn12` (stereo not shown), which AC50 is on record?
A: The AC50 was 1000 to 5000 nM.

Same assay, conditions: A375 cells expressing human PAH R408W; 24 hrs compound incubation; 13C-Tyrosine by LC-MS; average where tested multiple times; read-out: AC50

Q: For `COc1cccn2nc([C@H]3c4nc[nH]c4CCN3c3ncccn3)cc12` [Example 2298, (R)-4-(4-methoxypyrazolo[1,5-a]pyridin-2-yl)-5-(pyrimidin-2-yl)-4,5,6,7-tetrahydro-1H-imidazo[4,5-c]pyridine], which AC50 is on record?
A: The AC50 was 1000 to 5000 nM.

Q: Which AC50 does the source give for `FC(F)c1cccc2cc([C@@H]3c4nc[nH]c4CCN3c3ccc(C(F)(F)F)cn3)nn12` [Example 2138, (S)-4-(7-(difluoromethyl)pyrazolo[1,5-a]pyridin-2-yl)-5-(5-(trifluoromethyl)pyridin-2-yl)-4,5,6,7-tetrahydro-1H-imidazo[4,5-c]pyridine] here?
A: Its AC50 is under 500 nM.

Q: Which AC50 does the source give for `CCc1cccn2nc([C@H]3c4nc[nH]c4CCN3C(=O)c3nnc(-c4ccn(C)n4)o3)cc12` [Example 1926, (R)-(4-(4-ethylpyrazolo[1,5-a]pyridin-2-yl)-1,4,6,7-tetrahydro-5H-imidazo[4,5-c]pyridin-5-yl)(5-(1-methyl-1H-pyrazol-3-yl)-1,3,4-oxadiazol-2-yl)methanone] here?
A: Its AC50 is over 5000 nM.

Q: Which AC50 does the source give for `FC(F)(F)c1ccc(N2CCc3[nH]cnc3[C@@H]2c2cc3c(C4CC4)cccn3n2)nc1` [Example 2171, (R)-4-(4-cyclopropylpyrazolo[1,5-a]pyridin-2-yl)-5-(5-(trifluoromethyl)pyridin-2-yl)-4,5,6,7-tetrahydro-1H-imidazo[4,5-c]pyridine] here?
A: The AC50 was over 5000 nM.

Q: Which AC50 does the source give for `Cc1cccn2nc([C@@H]3c4nc[nH]c4CCN3C(=O)c3oc(-c4ccccn4)nc3C3CC3)cc12` [Example 2120, (S)-(4-cyclopropyl-2-(pyridin-2-yl)oxazol-5-yl)(4-(4-methylpyrazolo[1,5-a]pyridin-2-yl)-1,4,6,7-tetrahydro-5H-imidazo[4,5-c]pyridin-5-yl)methanone] here?
A: Its AC50 is under 500 nM.

Q: `O=C(c1ccnn1C1CC1)N1CCc2[nH]cnc2[C@H]1c1cc2ccccn2n1` [Example 2386, (S)-(1-cyclopropyl-1H-pyrazol-5-yl)(4-(pyrazolo[1,5-a]pyridin-2-yl)-6,7-dihydro-1H-imidazo[4,5-c]pyridin-5(4H)-yl)methanone] was tested. Which AC50 did it give?
A: Its AC50 is 1000 to 5000 nM.

Same assay, conditions: A375 cells expressing human R408W PAH; 24 hrs compound incubation; 13C-Tyrosine by LC-MS; average where tested multiple times; read-out: AC50

Q: `Cc1cccc2cc([C@H]3c4nc[nH]c4CCN3C(=O)c3oc([C@@H](C)O)nc3C(F)F)nn12` [Example 1165, (4-(difluoromethyl)-2-((R)-1-hydroxyethyl)oxazol-5-yl)((R)-4-(7-methylpyrazolo[1,5-a]pyridin-2-yl)-6,7-dihydro-1H-imidazo[4,5-c]pyridin-5(4H)-yl)methanone] was tested. Which AC50 did it give?
A: Its AC50 is 1000 to 5000 nM.

Q: Which AC50 does the source give for `O=C(c1nnc(-c2ccn(C(F)F)n2)o1)N1CCc2[nH]cnc2[C@@H]1c1cc2cccc(Cl)n2n1` [Example 965, (R)-(4-(7-chloropyrazolo[1,5-a]pyridin-2-yl)-6,7-dihydro-1H-imidazo[4,5-c]pyridin-5(4H)-yl)(5-(1-(difluoromethyl)-1H-pyrazol-3-yl)-1,3,4-oxadiazol-2-yl)methanone] here?
A: Its AC50 is over 5000 nM.

Q: With `CC(C)(O)c1nc(C(F)F)c(C(=O)N2CCc3[nH]cnc3[C@@H]2c2cc3c(F)cccn3n2)o1` [Example 715, (R)-(4-(difluoromethyl)-2-(2-hydroxypropan-2-yl)oxazol-5-yl)(4-(4-fluoropyrazolo[1,5-a]pyridin-2-yl)-6,7-dihydro-1H-imidazo[4,5-c]pyridin-5(4H)-yl)methanone] as the molecule, how does the AC50 read?
A: The AC50 was over 5000 nM.

Q: With `COc1cccn2nc([C@H]3c4nc[nH]c4CCN3C(=O)c3nnc(C(C)(C)C)o3)cc12` [Example 1182, (R)-(5-(tert-butyl)-1,3,4-oxadiazol-2-yl)(4-(4-methoxypyrazolo[1,5-a]pyridin-2-yl)-6,7-dihydro-1H-imidazo[4,5-c]pyridin-5(4H)-yl)methanone] as the molecule, how does the AC50 read?
A: The AC50 was 1000 to 5000 nM.

Q: Which AC50 does the source give for `Cc1nn(C)cc1-c1nnc(C(=O)N2CCc3[nH]cnc3[C@H]2c2cc3c(C)cccn3n2)o1` [Example 844, (S)-(5-(1,3-dimethyl-1H-pyrazol-4-yl)-1,3,4-oxadiazol-2-yl)(4-(4-methylpyrazolo[1,5-a]pyridin-2-yl)-6,7-dihydro-1H-imidazo[4,5-c]pyridin-5(4H)-yl)methanone] here?
A: Its AC50 is under 500 nM.

Q: For `O=C(c1cnn2cc(C3CC3)ccc12)N1CCc2[nH]cnc2[C@H]1c1cc2cccc(F)n2n1` [Example 1790, (S)-(6-cyclopropylpyrazolo[1,5-a]pyridin-3-yl)(4-(7-fluoropyrazolo[1,5-a]pyridin-2-yl)-6,7-dihydro-1H-imidazo[4,5-c]pyridin-5(4H)-yl)methanone], which AC50 is on record?
A: The AC50 was 500 to 1000 nM.

Q: For `Cn1nc(Cl)nc1C(=O)N1CCc2[nH]cnc2[C@H]1c1cc2cccc(Cl)n2n1` [Example 1142, (S)-(3-chloro-1-methyl-1H-1,2,4-triazol-5-yl)(4-(7-chloropyrazolo[1,5-a]pyridin-2-yl)-6,7-dihydro-1H-imidazo[4,5-c]pyridin-5(4H)-yl)methanone], which AC50 is on record?
A: The AC50 was under 500 nM.

Q: For `Cc1c(-c2nnc(C(=O)N3CCc4[nH]cnc4[C@H]3c3cc4cccc(Cl)n4n3)o2)cnn1C` [Example 1208, (S)-(4-(7-chloropyrazolo[1,5-a]pyridin-2-yl)-6,7-dihydro-1H-imidazo[4,5-c]pyridin-5(4H)-yl)(5-(1,5-dimethyl-1H-pyrazol-4-yl)-1,3,4-oxadiazol-2-yl)methanone], which AC50 is on record?
A: Its AC50 is under 500 nM.

Q: With `O=C(c1cnco1)N1CCc2[nH]cnc2[C@@H]1c1cc2c(Cl)cccn2n1` [Example 767, (R)-(4-(4-chloropyrazolo[1,5-a]pyridin-2-yl)-6,7-dihydro-1H-imidazo[4,5-c]pyridin-5(4H)-yl)(oxazol-5-yl)methanone] as the molecule, how does the AC50 read?
A: Its AC50 is over 5000 nM.

Q: With `CC(C)(O)c1nc(Br)c(C(=O)N2CCc3[nH]cnc3[C@H]2c2cc3c(Cl)cccn3n2)o1` [Example 722, (S)-(4-bromo-2-(2-hydroxypropan-2-yl)oxazol-5-yl)(4-(4-chloropyrazolo[1,5-a]pyridin-2-yl)-6,7-dihydro-1H-imidazo[4,5-c]pyridin-5(4H)-yl)methanone] as the molecule, how does the AC50 read?
A: The AC50 was under 500 nM.

Q: Which AC50 does the source give for `O=C(c1nnc(-c2cnn(C(F)F)c2)o1)N1CCc2[nH]cnc2[C@@H]1c1cc2cccc(Cl)n2n1` [Example 1121, (R)-(4-(7-chloropyrazolo[1,5-a]pyridin-2-yl)-6,7-dihydro-1H-imidazo[4,5-c]pyridin-5(4H)-yl)(5-(1-(difluoromethyl)-1H-pyrazol-4-yl)-1,3,4-oxadiazol-2-yl)methanone] here?
A: Its AC50 is 1000 to 5000 nM.

Q: How did the AC50 turn out when `Cc1cccn2nc([C@@H]3c4nc[nH]c4CCN3C(=O)c3nnc(-c4cc(C)n(C)n4)o3)cc12` [Example 854, (S)-(5-(1,5-dimethyl-1H-pyrazol-3-yl)-1,3,4-oxadiazol-2-yl)(4-(4-methylpyrazolo[1,5-a]pyridin-2-yl)-6,7-dihydro-1H-imidazo[4,5-c]pyridin-5(4H)-yl)methanone] was run?
A: Its AC50 is under 500 nM.

Q: How did the AC50 turn out when `Cn1cc(-c2nnc(C(=O)N3CCc4[nH]cnc4[C@@H]3c3cc4ccc(Cl)cn4n3)o2)cn1` [Example 697, (R)-(4-(6-chloropyrazolo[1,5-a]pyridin-2-yl)-6,7-dihydro-1H-imidazo[4,5-c]pyridin-5(4H)-yl)(5-(1-methyl-1H-pyrazol-4-yl)-1,3,4-oxadiazol-2-yl)methanone] was run?
A: Its AC50 is over 5000 nM.

Q: `Cc1ncccc1-c1nnc(C(=O)N2CCc3[nH]cnc3[C@@H]2c2cc3cccc(F)n3n2)o1` [Example 1495, (R)-(4-(7-fluoropyrazolo[1,5-a]pyridin-2-yl)-6,7-dihydro-1H-imidazo[4,5-c]pyridin-5(4H)-yl)(5-(2-methylpyridin-3-yl)-1,3,4-oxadiazol-2-yl)methanone] was tested. Which AC50 did it give?
A: The AC50 was over 5000 nM.

Q: How did the AC50 turn out when `O=C(c1nnc(-c2ccn(C(F)F)n2)o1)N1CCc2[nH]cnc2[C@H]1c1cc2cccc(Cl)n2n1` [Example 964, (S)-(4-(7-chloropyrazolo[1,5-a]pyridin-2-yl)-6,7-dihydro-1H-imidazo[4,5-c]pyridin-5(4H)-yl)(5-(1-(difluoromethyl)-1H-pyrazol-3-yl)-1,3,4-oxadiazol-2-yl)methanone] was run?
A: Its AC50 is under 500 nM.

Q: `Cc1cccc2cc([C@@H]3c4nc[nH]c4CCN3C(=O)c3nnc(C4(C)CC4)o3)nn12` [Example 1319, (S)-(5-(1-methylcyclopropyl)-1,3,4-oxadiazol-2-yl)(4-(7-methylpyrazolo[1,5-a]pyridin-2-yl)-6,7-dihydro-1H-imidazo[4,5-c]pyridin-5(4H)-yl)methanone] was tested. Which AC50 did it give?
A: The AC50 was under 500 nM.
